Values joined by “and” are separate entries in the source; they are usually repeats but may differ in a detail not shown here. Equal values may be shown once.
Legend:
Assay type in all cases: in vivo
[1] = test system: Myzus persicae-resistant strain, mixed population; assay: Myzus persicae spray test (MYZUPE); conditions: 4 ppm, 6 dat
Method: Myzus persicae—Spray Test (MYZUPE)
Insect: Myzus persicae-resistant strain, mixed population
Plant: Eggplant seedling (Solanum melongena var. Senryo 2gou) 2 leaf age (4-5 weeks after sowing), transplanted into vinyl pots of 60 mm diameter
Solvent pre-mixture: Sorpol® SD: Sorpol® BDB:Dimethylformamide=3:3:14; 10 mg a.i. is solved with 0.05 ml solvent pre-mixture. Water for dilution contains RME and AS (1000 ppm each) or 0.1% of spreader. Solutions are diluted at the rate of 1:5 for limit concentration determination.
Procedure: 1 day before treatment aphids are inoculated onto the testing plants, about 50 aphids per leaf, 100 for 1 pot. A paper label is placed on each pot. Solutions are sprayed directly onto both insects and plants. After drying pots are placed in the greenhouse at 20° C.-25° C. and 50-60% relative humidity.
After the specified period of time the mortality in % is determined and the rate of death is calculated according to the following scheme/criteria: […]

[2] = test system: Aulacophora femoralis 2nd instar larvae; assay: Aulacophora femoralis spray test (AUACFE); conditions: 0.8 ppm, 6 dat, rating scheme b297
Method: Aulacophora femoralis—Spray Test (AUACFE)
Insect: Aulacophora femoralis 2nd instar larvae from own culture;
Material: PET cups with 5 ml soil and A-PET lids
Plant: Cucumber (Cucumis sativus var. Hanshiro), cotyledon stage; 1 plant per pot;
Solvent pre-mixture: Sorpol® SD: Sorpol® BDB:Dimethylformamide=3:3:14;
10 mg a.i. solved with 0.05 ml solvent pre-mixture. Water for dilution contains RME and AS (1000 ppm each) or 0.1% of spreader. Solutions are diluted at the rate of 1:5 for limit concentration determination.
Procedure: Solutions are sprayed onto a plant. After drying, plants are cut and put on the soil in the testing cup. Five larvae L2 are released into each testing cup.
The testing cup is covered with the lid and stored at 25° C. and 50-60% r.h., 16L8D lighting conditions.
After the specified period of time, the mortality in % is determined according to the following scheme/criteria: […]

[3] = test system: Panonychus citri; assay: Panonychus citri spray test (METTCI); conditions: 4 ppm, 7 dat, rating scheme b306
Method: Panonychus citri—Spray Test (METTCI)
Plant: Citrus plants, ca 8 cm height
(§1) Solvent pre-mixture: Sorpol® SD: Sorpol® BDB:Dimethylformamide=3:3:14
(§2) 10 mg a i. is solved with 0.05 ml solvent pre-mixture.
(§3) Water for dilution contains RME and AS (1000 ppm each) or 0.1% of spreader. Solutions are diluted at the rate of 1:5 for limit concentration determination.
Procedure: 1 day before treatment mites were inoculated onto potted citrus plants, about 50 adults and some nymphs for 1 pot. The test solution is sprayed directly onto both mites and plants. After drying pots are stored at 25° C.
After the specified period of time mortality in % is determined by rating according to the following scheme/criteria.

[4] = test system: Nephotettix cincticeps-MR, resistant strain, 3rd-4th instar nymphs; assay: Nephotettix cincticeps spray test (NEPHCI); conditions: 7 dat
Method: Nephotettix cincticeps-Spray Test (NEPHCl)
Insect: Nephotettix cincticeps-MR, resistant strain, 3rd-4th instar nymphs from own culture
Plant: Rice seedlings (Oryza sativa var. Tamanishiki)
Material: ST-method container (200 ml desiccant polystyrene bottle) with a hole in the bottom sealed with metal mesh. The lid has a pit inside to keep desiccant, and it is used to sow rice seeds. The bottle is used upside down as “cover”, the lid with seedling is called “base”. Plastic stand-board with magnet labels to line the ST Bases up (“Stand”)
Solvent pre-mixture: Sorpol® SD: Sorpol® BDB:Dimethylformamide=3:3:14 10 mg a i. is solved with 0.05 ml solvent pre-mixture. Water for dilution contains RME and AS (1000 ppm each) or 0.1% of spreader. Solutions are diluted at the rate of 1:5 for limit concentration determination.
Procedure: On a pit in the center of a base (originally the desiccant space) pieces of paper towel are placed. 20-30 germinated rice seeds are sown on the paper and moistened with water. The base is covered with a plastic cup and kept in an incubator at 30° C. for five days.
The base with rice seedlings is placed on the Stand. Each base is sprayed with the solution.
After drying twelve 3rd-4th instar nymphs of Nephotettix cincticeps-MR are put on the base and confined with the cover. The ST containers on the Stands are kept in the testing room at 25° C. and 50-60% r.h., 16L8D lighting conditions.
After the specified period of time mortality in % is determined by rating according to the following scheme/criteria: Counting living moving insects, calculate mortality in % by the formula: […]

[5] = test system: Bemisia tabacii biotype B; assay: Bemisia tabacii spray test (BEMIAR); conditions: 100 ppm, 14 dat, rating scheme b324
Method: Bemisia tabacii—Spray-Test (BEMIAR)
Insect: Bemisia tabacii biotype B
Plant: Tomato seedlings, 5 leaf stage in vinyl pots of 40 mm diameter
as §1
10 mg a.i. is solved with 0.05 ml solvent pre-mixture. Water for dilution contains RME and AS (1000 ppm each) or 0.1% of spreader. Solutions are diluted at the rate of 1:5 for limit concentration determination.
Procedure: Solutions are sprayed to the plants. After drying treated pots are placed in the greenhouse where breeding BEMIAR for an infection-time of 24 h. Then the plants is placed in the testing room at 25° C. and 50-60% r.h., 16L8D lighting conditions.
After the specified period of time mortality in % is determined according to the following scheme/criteria: […]

[6] = test system: Adoxophyes honmai; assay: Adoxophyes honmai test (ADXPFA), treated artificial diet; conditions: 0.8 ppm, 2 dat
Method: (§4) Procedure: Broccoli seedlings of 4-5 leaf stage planted in a vinyl pot (9 cm diameter) are sprayed with the solution. After drying half of the leaves of the plants are cut and put into a A-PET cup. Ten larvae of Plutella xylostella L3 are released in the cup and the dish is placed at 25° C. After 4 days another half leaf is cut and added to the dish. After the specified period of time mortality in % is determined according to the figures of mortality used for evaluation. • 1 larva dead: 20% Efficacy • 5 larvae dead: 100% Efficacy Adoxophyes honmai—Test (ADXPFA)
Insect: Adoxophyes honmai from own culture
Material: 1 A-PET cup with lid
Food agent: 4.5 g of artificial diet powder Silkmate-Kantan-3®
as §1
10 mg a i. is solved with 0.05 ml solvent pre-mixture. Water for dilution contains RME and AS (1000 ppm each) or 0.1% of spreader. Solutions are diluted at the rate of 1:5 for limit concentration determination.
Procedure: 4.5 g of artificial diet powder is put into a PET cup (10 cm diameter, 5 cm depth). The powder was leveled to make a layer in the bottom of the cup. […]
(§5) After the specified period of time mortality in % is determined according to the following criteria: • 1 larva dead: 20% Efficacy • 5 larvae dead: 100% Efficacy Frankliniella occidentalis—Spray-Test (FRANOC)

[7] = test system: Frankliniella occidentalis; assay: Frankliniella occidentalis spray test (FRANOC); conditions: 0.16 ppm, 7 dat
Method: as §5
Insect: Frankliniella occidentalis from own culture
Plant: Cucumber seedlings, cotyledon stage
as §1, §2, §3
Procedure: The solution is sprayed to a cucumber seedling. After drying, the plant is placed in a plastic stand. About fifty 1st-instar larvae were inoculated to the plant and covered with a cage. The plant is stored at 25° C.
After the specified period of time % efficacy is determined by rating feeding damages on the plant according to the following criteria: […]

[8] = test system: Spodoptera litura; assay: Biological Test Example 1: test against tobacco cutworm (Spodoptera litura) larvae, sweet potato leaf dip; conditions: foliar, 168 h, active compound concentration 100 ppm, third instar larvae, after 7 days, read-out: insecticidal activity
Method: (§6) Unless not mentioned otherwise, the test solutions were prepared as follows:
(§7) Containing as solvent: Dimethylformamide, 3 parts by weight; and as emulsifier: Polyoxyethylene alkyl phenyl ether, 1 part by weight
(§8) To prepare the test solution, 1 part by weight of an active compound is mixed with the above-mentioned amount of solvent containing the above-mentioned amount of emulsifier, and the mixture is diluted with water to the desired concentration.
Test Against Tobacco Cutworm (Spodoptera litura) Larvae
Leaves of sweet potato were immersed in the test solution at the appropriate concentration, and the leaves were dried in air. The leaves were then placed in a petri dish having a diameter of 9 cm, and ten Spodoptera litura at third instar larvae were released therein. The petri dishes were placed in a temperature-controlled chamber at 25° C.
After 2 days and 4 days more sweet potato leaves were added. After 7 days, the number of dead larvae was counted and the insecticidal activity was calculated. An insecticidal activity of 100% means that all larvae were killed, whereas an insecticidal activity of 0% means that no larva was killed. In the current test, the results of two petri dishes for each treatment were averaged.

[9] = test system: Tetranychus urticae; assay: Biological Test Example 2: test against two-spotted spider mite (Tetranychus urticae), spray on kidney bean; conditions: 168 h, active compound concentration 100 ppm, adult mites, after 7 days, read-out: acaricidal activity
Method: as §6, §7, §8
Test Against Two-Spotted Spider Mite (Tetranvchus urticae)
50 to 100 adult mites of Tetranychus urticae were inoculated to leaves of kidney bean at two-leaf stage planted in a pot of 6 cm in diameter. After one day, test solution at the appropriate concentration was sprayed thereon in a sufficient amount using a spray gun. After the spraying, the plant pot was placed inside a greenhouse, and after 7 days, the acaricidal activity was calculated. An acaricidal activity of 100% means that all mites were killed, whereas an acaricidal activity of 0% means that no mite was killed.

[10] = test system: Aulacophora femoralis; assay: Biological Test Example 3: test against cucurbit leaf beetle (Aulacophora femoralis), cucumber leaf dip; conditions: foliar, 168 h, active compound concentration 100 ppm, second instar larvae, after 7 days, read-out: insecticidal activity
Method: as §6, §7, §8
Test Against Cucurbit Leaf Beetle (Aulacophora femoralis)
Leaves of cucumber were immersed in the test solution at the appropriate concentration, and the leaves were dried in air. The leaves were then put in a plastic cup containing sterilized black soil and five Aulacophora femoralis at second instar larvae were released in the cup. The cups were placed in a temperature-controlled chamber at 25° C. After 7 days, the number of dead larvae was counted, and the insecticidal activity was calculated. An insecticidal activity of 100% means that all larvae were killed, whereas an insecticidal activity of 0% means that no larva was killed.

[11] = test system: organic phosphorus agent- and carbamate agent-resistant Myzus persicae; assay: Biological Test Example 4: test against organic phosphorus agent- and carbamate agent-resistant green peach aphid (Myzus persicae), spray on eggplant; conditions: active compound concentration 100 ppm; after 7 days
Method: as §6, §7, §8
Test Against Organic Phosphorus Agent- and Carbamate Agent Resistant Green Peach Aphid (Myzus persicae)
50 to 100 head of organic phosphorous agent- and carbamate agent-resistant Myzus persicae were inoculated to leaves of eggplant at two-leaf stage, planted in a pot of 6 cm in diameter. After one day, test solution at the appropriate concentration was sprayed thereon in a sufficient amount using a spray gun. After the spraying, the plant pot was placed inside a greenhouse, and after 7 days, the insecticidal rate was calculated.
An insecticidal activity of 100% means that all aphids were killed, whereas an insecticidal activity of 0% means that no aphid was killed.

[12] = test system: Plutella xylostella 3rd instar larvae; assay: Plutella xylostella spray test (PLUTXY); conditions: PLUTMA; 0.8 ppm; 7 dat
Method: Plutella xylostella—Spray Test (PLUTXY)
Insect: Plutella xylostella 3rd instar larvae from own culture
Material: A-PET cup, A-PET lids
Plant: Broccoli 5 leaf stage
as §1
10 mg a i. is solved with 0.05 ml solvent pre-mixture
as §3, §4

| Compound | Efficacy/day(s) of treatment [1] | Efficacy/day(s) of treatment ([1]; rating scheme) | Efficacy/day(s) of treatment [2] | Efficacy/day(s) of treatment [3] | Efficacy/day(s) of treatment ([4]; 20 ppm) | Efficacy/day(s) of treatment [5] | Efficacy/day(s) of treatment [6] | Efficacy/day(s) of treatment [7] | pest or weed control at 100 ppm [8] | pest or weed control at 100 ppm [9] | pest or weed control at 100 ppm [10] | insecticidal activity [11] | Efficacy/day(s) of treatment ([4]; 100 ppm) | Efficacy/day(s) of treatment [12] |
| --- | --- | --- | --- | --- | --- | --- | --- | --- | --- | --- | --- | --- | --- | --- |
| 4-{3-[3,5-Bis(trifluoromethyl)phenyl]-3-(trifluoromethyl)-3,4-dihydro-2H-pyrrol-5-yl}-2-methyl-N-(thietan-3-yl)benzamide [Compound 1-19] | 90%/6 dat | 98%/6 dat | 100%/6 dat | 60%/7 dat | 20%/7 dat and 80%/7 dat | 100%/14 dat | 60%/2 dat | 98%/7 dat | – | – | – | – | – | – |
| Cc1cc(C2=NCC(c3cc(C(F)(F)F)cc(C(F)(F)F)c3)(C(F)(F)F)C2)ccc1C(=O)NC1CS(=O)(=O)C1 (centres unmarked) [Compound 1-21, 4-{3-[3,5-Bis(trifluoromethyl)phenyl]-3-(trifluoromethyl)-3,4-dihydro-2H-pyrrol-5-yl}-N-(1,1-dioxidothietan-3-yl)-2-methylbenzamide] | – | 98%/6 dat | – | – | – | 98%/14 dat | – | – | 100% | 100% | 100% | 100% | 90%/7 dat | 100%/7 dat |
| Cc1cc(C2=NOC(c3cc(C(F)(F)F)cc(C(F)(F)F)c3)(C(F)(F)F)C2)ccc1C(=O)NC1C[S+]([O-])C1 (centres unmarked) [ExNo A-23 of WO 2009/080250, reference compound] | 60%/6 dat | – | – | – | 40%/7 dat | – | 40%/2 dat | 60%/7 dat | – | – | – | – | – | – |

Source: patent US8158560B2, “Insecticidal arylpyrroline compounds” (Bayer CropScience AG, priority 2009, dated 2012)
